Source: patent publication US12329733B2, “Acetyl-leucine or a pharmaceutically acceptable salt thereof for improved mobility and cognitive function” (INTRABIO LTD., priority 2016, dated 2025)

How the values were obtained:
[1] = test system: cerebellar patients; details: cited from earlier work
[2] = test system: patients with cerebellar ataxia of different etiologies; details: in responders, ref (8); cited from earlier work
[3] = test system: patients with postural imbalance / gait disorder; subjects; test: clinical examination and patient/family reports of balance, gait, dizziness and falls; type: in vivo, human; details: for balance (subjective): 5 g/day
Text: In addition to the mobility assessments disclosed above, mobility in a subject having a mobility disorder associated with ageing may be tested, for example, using assessments of balance and/or through monitoring the number of falls experienced by the subject.

[4] = test system: subjects (cognitive function); test: subject and family reports of cognitive function and alertness; type: in vivo, human; details: for Details on Subjective Improvement / Subjective Improvement on treatment?: 5 g/day
Text: “Cognitive function” can mean any mental process that involves a symbolic operation, for example, perception, memory, creation of imagery, awareness, reasoning, thinking and capacity for judgment. Measures of cognitive functioning include assessment tools designed to measure, for example: (a) general intelligence, (b) nonverbal intelligence, (c) achievement, (d) attention/executive functioning, (e) memory and learning, (f) visual-motor and motor functioning and (g) language. Such assessment tools are well-known in the art and include, for example, Wechsler Adult Intelligence Scale and Woodcock-Johnson III Tests of Cognitive Abilities (both for assessing general intelligence), Raven Progressive Matrices (for assessing nonverbal intelligence), Wide Range Achievement Test and Woodcock-Johnson III Tests of Achievement (for assessing academic achievement), Conners' Continuous Performance Test II (for assessing attention/executive functioning), Wide Range Assessment of Memory and Learning (for assessing memory and learning), Bender Visual-Motor Gestalt Test, Halstead-Reitan Grip Strength Test, Halstead-Reitan Finger Tapping Test and Lafayette Grooved Pegboard Task (all for assessing visual-motor and motor functioning) and Peabody Picture Vocabulary Test (for assessing language).

[5] = test system: patient with postural imbalance; test: timed 8-meter-walking test; type: in vivo, human; details: Example 6: 5 g/day for 1 month; baseline 6.5 sec
Text: Baseline (prior to commencement of treatment): Maximal distance to walk until the patient could not walk anymore because of fatigue was 1 km. The […] up-and-go test yielded 25.4 sec. SARA yielded 6.5/40. […] Tandem stance and gait was not possible to perform due to an increased fall risk. Mean timed 8-meter-walking test was 6.5 sec.

[6] = test system: subject suffering from imbalance and gait disorder; test: home setting “get up and go test”; type: in vivo, human; details: Example 1: person, 4.5 g/day
Experimental: “Mobility” refers to the ability of a subject to move. Mobility may be assessed in the elderly using one or more simple tests. As illustrated in the Examples, the “get up and go” test is a simple test capable of measuring mobility. In this test, the speed of sit to stand and walking to a target point is analysed, suitably as described in the Examples. For example, the test may begin with the subject sitting in a chair. At the start of the stop clock, the subject should rise unaided and walk to a target point. The target point may be 2-10 m away, optionally 4-6 m away. The stop clock should be stopped upon the subject reaching the target point. Any change in mobility, for example, over time or through treatment, can be monitored by using the “get up and go” test at two or more time points and comparing the results, again as illustrated in the Examples. Other suitable tests for measuring mobility include those used in the Elderly Mobility Scale (EMS), a 20-point validated assessment tool for the assessment of frail elderly subjects (9), considering locomotion, balance and key position changes. The ability of the subject to move was measured in a home setting “get up and go test”. This test involved the subject rising unaided from their chair and walking the length of their living area to their kitchen. […]

[7] = Example 1: after one-month course ceased
[8] = Example 1: remains on 4.5 g per day
[9] = Example 1: person, 4.5 g/day, after 2-3 weeks of treatment

CC(=O)NC(CC(C)C)C(=O)O (racemic) [acetyl-DL-leucine]
cerebellar symptoms ([1]; case series, ref (5)): Improvement of cerebellar symptoms | benefit in another case series ([1]; ref (6)): did not find benefit | brain metabolism (PET) [2]: increased metabolism in the midbrain and lower brainstem | balance after ceasing treatment [3, 7]: remained good for two weeks then deteriorated | walking confidence / balance ([3]; Example 1: person, 4.5 g/day, by 7-10 days of treatment): more confident walking due to improved balance | improvements of first and second months, on further treatment [3, 8]: have continued | improvements noticed in first month, on second treatment ([3]; Example 1: second one-month course, 4.5 g/day): rapidly returned | dizziness symptoms ([3]; Example 2: person, balance disorder/senile gait disorder, 3 g/day first week then 5 g/day, Day 14): improvement of dizziness symptoms | frequency of falls ([3]; Example 2: person, 3 g/day first week then 5 g/day, Day 14): significant reduction in the frequency of falls | hypokinetic-rigid syndrome ([3]; Example 2: person, Day 14): No change | dizziness symptoms after suspension of treatment ([3]; Example 2: treatment suspended Day 56, re-evaluated Day 62): increase of dizziness symptoms two days after suspension of treatment | time when improvement began ([3]; Example 3: person): second week of treatment | dizziness and imbalance (spouse feedback) ([3]; Example 3: person, 3 g/day one week then 5 g/day, 22 days after beginning treatment): significant reduction of dizziness and imbalance | gait (spouse feedback) ([3]; Example 3: person, 22 days after beginning treatment): significant improvement of gait | gait and imbalance (patient and child report) ([3]; Example 4: person, 3 g/day one week then 5 g/day, 3 weeks after beginning treatment): significantly improved | clinical examination of gait and balance ([3]; Example 5: Day 42, 3 gram per day): significant improvement of gait and balance | spouse report on re-evaluation ([3]; Example 5: Day 42, 3 gram per day restarted Day 28): dramatic improvement with impact on functioning and quality of living | falls ([3]; Example 5: Day 42, four falls over three months before Day 0): No further falls were reported | symptoms after medication was stopped ([3]; Example 5: medication stopped after two weeks): worsening of symptoms | gait (patient and spouse report) ([3]; Example 5: patient, progressive gait disorder, 3 gram per day for two weeks): considerable improvement of gait | improvements on lower dosage ([3]; Example 6: 1 g/1 g/1 g for over 4 months): remained unchanged | sway ([3]; Example 6: 5 g/day for 1 month): became visibly calmer | stance with feet together, tandem stance and gait ([3]; Example 6: 5 g/day for 1 month, tandem stance and gait not possible at baseline): possible with increased omnidirectional sway | postural stability (subjective) ([3]; Example 6: 5 g/day for 1 month, walking and stairs): subjectively more postural stable | frequency of falls ([3]; Example 6: current state on 1 g/1 g/1 g, 2-3 per month before treatment): 0-1 /month | falls during therapy period ([3]; Example 6: therapy period of 1 month, 2-3 per month before): did not record any falls | balance (subjective) ([3]; Example 7: 66 M): improvement in their balance | balance (subjective) ([3]; Example 8: 29 M): no difference in balance | cognition after ceasing treatment [4, 7]: gradually declined to their pre-treatment status over one month | alertness on waking (subject's description) [4, 9]: fully alert on waking | cognitive function, spatial awareness and general demeanor (family) [4, 9]: significant improvement in their cognitive function, spatial awareness and general demeanor | confusion evident prior to treatment [4, 8]: entirely absent | communication and executive function (family) ([4]; Example 6: 5 g/day for 1 month): executive function improved | energy, agility (subjective) ([4]; Example 6: 5 g/day for 1 month): more energy, was more agile and interactive | Details on Subjective Improvement ([4]; Example 7: 66 M): improvement in general alertness and a shortening of the time required to go from ‘asleep’ to ‘fully awake’ | Subjective Improvement on treatment? ([4]; Example 7: 66 M): Yes | Details on Subjective Improvement ([4]; Example 8: 29 M): improvement in general alertness. They also reported a decrease in anxiety | Subjective Improvement on treatment? ([4]; Example 8: 29 M): Yes | Details on Subjective Improvement ([4]; Example 9: 55 F): shortening of the time required to go from ‘asleep’ to ‘fully awake’ | Subjective Improvement on treatment? ([4]; Example 9: 55 F): Yes | Subjective Improvement on treatment? ([4]; Example 10: […]): no difference between on and off medication | Subjective Improvement on treatment? ([4]; Example 10: […], listed as acetyl-leucine): No | Details on Subjective Improvement ([4]; Example 11: 53 M): improvement in general alertness and a shortening of the time required to go from ‘asleep’ to ‘fully awake’ | Subjective Improvement on treatment? ([4]; Example 11: 53 M): Yes | Details on Subjective Improvement ([4]; Example 12: 48 F): feeling less tired than usual and taking less time than was usual to go from asleep to fully awake | Subjective Improvement on treatment? ([4]; Example 12: 48 F): Yes | Mean timed 8-meter-walking test [5]: 4.4 s | faster than pre-treatment in get up and go test [6]: 25% | average time taken to rise unaided from chair and walk the length of living area to kitchen ([6]; seven consecutive days once treatment had started, prior to treatment 40±3 seconds): 30 ± 2 s
